Data as given in article PMC10337138 (Acta Neuropathologica Communications, 2023).

Legend:
Conditions in all cases: 1 mM ATP; inhibitor
AKT2 = AKT2 (Homo sapiens, UniProt P31751)
Protocol: (§1) Kinase selectivity panel Kinome profiling was conducted by AssayQuant Technologies (Marlboro, MA) using Sox chromophore technology and Sox-based peptide substrates developed for human kinases in a 384-well format. Compounds were tested at 1 µM in the presence of 1 mM ATP.

CDC42BPA/MRCKA = CDC42BPA/MRCKA (Homo sapiens, UniProt Q5VT25)
Protocol: as §1

CDK1/B1 = CDK1/B1 (Homo sapiens, UniProt P06493)
Protocol: as §1

CHAK1 = target: T1, CHAK1 (Homo sapiens, UniProt Q96QT4)
T1 construct: gene TRPM7
Protocol: as §1

CSNK1A1/CK1A1 = CSNK1A1/CK1A1 (Homo sapiens, UniProt P48729)
Protocol: as §1

CSNK1G3/CK1G3 = CSNK1G3/CK1G3 (Homo sapiens, UniProt Q9Y6M4)
Protocol: as §1

DAPK2 = DAPK2 (Homo sapiens, UniProt Q9UIK4)
Protocol: as §1

DCLK2/DCAML2 = DCLK2/DCAML2 (Homo sapiens, UniProt Q8N568)
Protocol: as §1

DYRK4 = DYRK4 (Homo sapiens, UniProt Q9NR20)
Protocol: as §1

EPHA1 = EPHA1 (Homo sapiens, UniProt P21709)
Protocol: as §1

ERN2 = ERN2 (Homo sapiens, UniProt Q76MJ5)
Protocol: as §1

FER = FER (Homo sapiens, UniProt P16591)
Protocol: as §1

HIPK2 = HIPK2 (Homo sapiens, UniProt Q9H2X6)
Protocol: as §1

JAK2(JH1JH2) = JAK2(JH1JH2) (Homo sapiens, UniProt O60674)
Protocol: as §1

LCK = LCK (Homo sapiens, UniProt P06239)
Protocol: as §1

LYNB = target: T2, LYNB (Homo sapiens, UniProt P07948)
T2 construct: gene LYN
Protocol: as §1

MAP3K1 = MAP3K1 (Homo sapiens, UniProt Q13233)
Protocol: as §1

MAP4K1/HPK1 = MAP4K1/HPK1 (Homo sapiens, UniProt Q92918)
Protocol: as §1

MAP4K3/GLK = MAP4K3/GLK (Homo sapiens, UniProt Q8IVH8)
Protocol: as §1

MAP4K5/KSH1 = MAP4K5/KSH1 (Homo sapiens, UniProt Q9Y4K4)
Protocol: as §1

MAPK13/P38D = MAPK13/P38D (Homo sapiens, UniProt O15264)
Protocol: as §1

MAPK15/ERK7 = MAPK15/ERK7 (Homo sapiens, UniProt Q8TD08)
Protocol: as §1

MYO3A = MYO3A (Homo sapiens, UniProt Q8NEV4)
Protocol: as §1

NDR1 = target: T3, NDR1 (Homo sapiens, UniProt Q15208)
T3 construct: gene STK38
Protocol: as §1

NUAK2 = NUAK2 (Homo sapiens, UniProt Q9H093)
Protocol: as §1

PAK5 = PAK5 (Homo sapiens, UniProt Q9P286)
Protocol: as §1

PHKG1 = PHKG1 (Homo sapiens, UniProt Q16816)
Protocol: as §1

PLK4 = PLK4 (Homo sapiens, UniProt O00444)
Protocol: as §1

PRKACA = PRKACA (Homo sapiens, UniProt P17612)
Protocol: as §1

PRKACB = PRKACB (Homo sapiens, UniProt P22694)
Protocol: as §1

PRKCB1/PKCB1 = target: T4, PRKCB1/PKCB1 (Homo sapiens, UniProt P05771)
T4 construct: gene PRKCB
Protocol: as §1

PRKD1 = PRKD1 (Homo sapiens, UniProt Q15139)
Protocol: as §1

RPS6KB1/P70S6K = RPS6KB1/P70S6K (Homo sapiens, UniProt P23443)
Protocol: as §1

SLK = SLK (Homo sapiens, UniProt Q9H2G2)
Protocol: as §1

STK10/LOK = STK10/LOK (Homo sapiens, UniProt O94804)
Protocol: as §1

TYRO3 = TYRO3 (Homo sapiens, UniProt Q06418)
Protocol: as §1

ULK2 = ULK2 (Homo sapiens, UniProt Q8IYT8)
Protocol: as §1

YSK4 = target: T5, YSK4 (Homo sapiens, UniProt Q56UN5)
T5 construct: gene MAP3K19
Protocol: as §1

T5 sequence (Q56UN5 whole entry): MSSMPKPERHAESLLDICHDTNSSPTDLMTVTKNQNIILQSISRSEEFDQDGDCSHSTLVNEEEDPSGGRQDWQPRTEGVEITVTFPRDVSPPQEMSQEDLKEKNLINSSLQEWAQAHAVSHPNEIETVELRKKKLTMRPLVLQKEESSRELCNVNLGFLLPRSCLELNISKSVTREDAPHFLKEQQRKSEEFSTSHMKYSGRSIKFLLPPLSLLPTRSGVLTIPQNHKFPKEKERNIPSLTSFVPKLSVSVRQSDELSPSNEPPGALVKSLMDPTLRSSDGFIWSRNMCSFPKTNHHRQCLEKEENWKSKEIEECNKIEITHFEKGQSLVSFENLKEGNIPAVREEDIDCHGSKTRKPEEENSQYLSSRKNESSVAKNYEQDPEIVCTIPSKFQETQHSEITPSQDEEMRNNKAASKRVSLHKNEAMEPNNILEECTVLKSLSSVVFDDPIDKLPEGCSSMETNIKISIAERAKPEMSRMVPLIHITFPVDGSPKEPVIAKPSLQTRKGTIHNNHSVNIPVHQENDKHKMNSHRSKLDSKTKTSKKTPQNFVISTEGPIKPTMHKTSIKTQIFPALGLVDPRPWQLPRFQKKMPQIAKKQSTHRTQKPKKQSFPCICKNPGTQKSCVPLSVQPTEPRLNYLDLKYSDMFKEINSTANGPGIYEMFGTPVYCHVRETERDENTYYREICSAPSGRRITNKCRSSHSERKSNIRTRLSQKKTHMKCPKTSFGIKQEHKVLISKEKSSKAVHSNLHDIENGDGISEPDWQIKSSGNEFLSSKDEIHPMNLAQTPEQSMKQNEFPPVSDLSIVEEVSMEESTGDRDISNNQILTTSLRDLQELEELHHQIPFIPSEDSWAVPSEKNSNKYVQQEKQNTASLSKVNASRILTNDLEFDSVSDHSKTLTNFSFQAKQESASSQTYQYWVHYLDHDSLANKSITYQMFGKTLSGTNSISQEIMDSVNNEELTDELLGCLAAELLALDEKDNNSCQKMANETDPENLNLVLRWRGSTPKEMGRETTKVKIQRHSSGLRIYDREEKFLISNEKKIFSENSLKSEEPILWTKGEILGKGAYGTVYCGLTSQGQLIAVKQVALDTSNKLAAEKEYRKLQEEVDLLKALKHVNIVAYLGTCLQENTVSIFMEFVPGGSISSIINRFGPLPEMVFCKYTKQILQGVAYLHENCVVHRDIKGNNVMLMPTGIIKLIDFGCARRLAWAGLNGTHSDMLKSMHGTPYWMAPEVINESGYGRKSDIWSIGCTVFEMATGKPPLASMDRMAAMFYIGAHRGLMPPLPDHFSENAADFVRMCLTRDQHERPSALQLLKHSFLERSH
Sequence of PAK5 (Q9P286 whole entry): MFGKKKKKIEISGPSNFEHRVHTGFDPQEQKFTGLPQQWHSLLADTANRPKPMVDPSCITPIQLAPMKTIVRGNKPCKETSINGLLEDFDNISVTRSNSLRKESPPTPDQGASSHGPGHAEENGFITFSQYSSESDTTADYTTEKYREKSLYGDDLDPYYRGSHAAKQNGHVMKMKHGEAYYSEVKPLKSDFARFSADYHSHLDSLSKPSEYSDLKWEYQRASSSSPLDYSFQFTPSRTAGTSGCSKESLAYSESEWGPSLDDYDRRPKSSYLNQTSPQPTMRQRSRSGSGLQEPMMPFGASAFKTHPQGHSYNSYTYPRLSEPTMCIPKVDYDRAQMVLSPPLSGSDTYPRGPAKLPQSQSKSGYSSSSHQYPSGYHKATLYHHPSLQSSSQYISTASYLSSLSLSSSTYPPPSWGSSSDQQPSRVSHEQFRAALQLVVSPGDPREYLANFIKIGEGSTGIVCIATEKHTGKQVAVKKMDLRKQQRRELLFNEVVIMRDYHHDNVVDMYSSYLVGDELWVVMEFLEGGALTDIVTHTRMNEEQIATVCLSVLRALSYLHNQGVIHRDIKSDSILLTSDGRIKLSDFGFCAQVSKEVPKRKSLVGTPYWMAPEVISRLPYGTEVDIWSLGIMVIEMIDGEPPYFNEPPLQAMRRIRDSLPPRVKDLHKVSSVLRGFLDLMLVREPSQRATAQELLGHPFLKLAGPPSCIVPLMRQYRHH
T1 sequence (Q96QT4 whole entry): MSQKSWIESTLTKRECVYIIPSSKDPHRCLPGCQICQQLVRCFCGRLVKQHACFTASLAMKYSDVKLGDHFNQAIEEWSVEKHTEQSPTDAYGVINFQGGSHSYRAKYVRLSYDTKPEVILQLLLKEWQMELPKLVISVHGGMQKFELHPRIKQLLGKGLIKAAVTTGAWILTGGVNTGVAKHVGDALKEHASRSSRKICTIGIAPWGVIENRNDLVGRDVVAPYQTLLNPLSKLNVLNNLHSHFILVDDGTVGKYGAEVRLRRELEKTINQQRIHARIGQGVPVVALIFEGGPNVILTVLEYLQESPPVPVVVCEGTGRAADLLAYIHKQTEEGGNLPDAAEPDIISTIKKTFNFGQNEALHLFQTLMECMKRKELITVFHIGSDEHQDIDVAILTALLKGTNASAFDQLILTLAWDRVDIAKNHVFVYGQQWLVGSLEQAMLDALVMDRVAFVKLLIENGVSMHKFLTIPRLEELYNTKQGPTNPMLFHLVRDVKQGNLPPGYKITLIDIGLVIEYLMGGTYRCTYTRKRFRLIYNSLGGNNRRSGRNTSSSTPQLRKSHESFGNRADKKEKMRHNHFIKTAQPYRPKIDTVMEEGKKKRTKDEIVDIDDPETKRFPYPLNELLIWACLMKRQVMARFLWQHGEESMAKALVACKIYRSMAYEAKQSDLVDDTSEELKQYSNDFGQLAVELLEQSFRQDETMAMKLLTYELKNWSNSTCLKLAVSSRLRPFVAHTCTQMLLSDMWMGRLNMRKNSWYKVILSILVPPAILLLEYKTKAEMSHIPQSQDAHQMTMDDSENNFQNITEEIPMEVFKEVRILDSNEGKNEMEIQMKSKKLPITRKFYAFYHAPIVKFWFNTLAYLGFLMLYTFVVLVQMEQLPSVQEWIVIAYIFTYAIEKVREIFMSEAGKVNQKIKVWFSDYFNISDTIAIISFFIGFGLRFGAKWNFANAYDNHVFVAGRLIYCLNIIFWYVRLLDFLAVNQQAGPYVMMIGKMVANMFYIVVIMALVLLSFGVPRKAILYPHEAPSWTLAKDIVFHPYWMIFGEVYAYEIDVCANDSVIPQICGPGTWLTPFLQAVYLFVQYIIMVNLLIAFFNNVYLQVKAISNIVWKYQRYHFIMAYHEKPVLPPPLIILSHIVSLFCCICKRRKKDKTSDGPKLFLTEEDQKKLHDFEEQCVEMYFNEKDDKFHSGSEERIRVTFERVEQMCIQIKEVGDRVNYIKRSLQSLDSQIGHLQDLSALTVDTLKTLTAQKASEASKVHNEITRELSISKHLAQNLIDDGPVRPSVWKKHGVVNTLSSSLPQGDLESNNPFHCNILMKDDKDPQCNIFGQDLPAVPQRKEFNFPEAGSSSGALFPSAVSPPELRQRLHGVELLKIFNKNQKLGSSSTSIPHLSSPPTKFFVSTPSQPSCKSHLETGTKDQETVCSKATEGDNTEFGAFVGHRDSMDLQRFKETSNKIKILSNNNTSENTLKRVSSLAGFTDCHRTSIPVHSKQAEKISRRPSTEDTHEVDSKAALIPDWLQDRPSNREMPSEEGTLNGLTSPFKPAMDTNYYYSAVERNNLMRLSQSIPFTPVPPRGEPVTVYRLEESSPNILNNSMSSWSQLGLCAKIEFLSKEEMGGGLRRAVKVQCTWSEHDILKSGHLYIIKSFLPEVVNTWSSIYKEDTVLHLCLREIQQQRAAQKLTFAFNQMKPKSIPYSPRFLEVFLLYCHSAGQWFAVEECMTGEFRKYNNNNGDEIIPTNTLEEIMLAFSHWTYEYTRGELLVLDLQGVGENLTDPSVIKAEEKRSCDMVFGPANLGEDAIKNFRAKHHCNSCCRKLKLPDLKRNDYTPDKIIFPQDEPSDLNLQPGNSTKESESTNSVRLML
Sequence of AKT2 (P31751 whole entry): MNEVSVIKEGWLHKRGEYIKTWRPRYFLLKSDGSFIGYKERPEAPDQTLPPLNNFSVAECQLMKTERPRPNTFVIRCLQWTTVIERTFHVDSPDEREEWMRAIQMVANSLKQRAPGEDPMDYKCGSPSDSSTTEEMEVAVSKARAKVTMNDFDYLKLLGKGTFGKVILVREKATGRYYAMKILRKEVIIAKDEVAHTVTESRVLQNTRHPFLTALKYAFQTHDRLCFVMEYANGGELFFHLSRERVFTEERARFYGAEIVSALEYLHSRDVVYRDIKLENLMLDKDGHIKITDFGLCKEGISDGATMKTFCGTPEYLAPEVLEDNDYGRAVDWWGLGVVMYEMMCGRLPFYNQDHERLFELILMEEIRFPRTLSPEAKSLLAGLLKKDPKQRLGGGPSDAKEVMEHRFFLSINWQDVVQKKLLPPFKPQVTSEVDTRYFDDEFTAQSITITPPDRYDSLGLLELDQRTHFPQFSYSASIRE
Sequence of NUAK2 (Q9H093 whole entry): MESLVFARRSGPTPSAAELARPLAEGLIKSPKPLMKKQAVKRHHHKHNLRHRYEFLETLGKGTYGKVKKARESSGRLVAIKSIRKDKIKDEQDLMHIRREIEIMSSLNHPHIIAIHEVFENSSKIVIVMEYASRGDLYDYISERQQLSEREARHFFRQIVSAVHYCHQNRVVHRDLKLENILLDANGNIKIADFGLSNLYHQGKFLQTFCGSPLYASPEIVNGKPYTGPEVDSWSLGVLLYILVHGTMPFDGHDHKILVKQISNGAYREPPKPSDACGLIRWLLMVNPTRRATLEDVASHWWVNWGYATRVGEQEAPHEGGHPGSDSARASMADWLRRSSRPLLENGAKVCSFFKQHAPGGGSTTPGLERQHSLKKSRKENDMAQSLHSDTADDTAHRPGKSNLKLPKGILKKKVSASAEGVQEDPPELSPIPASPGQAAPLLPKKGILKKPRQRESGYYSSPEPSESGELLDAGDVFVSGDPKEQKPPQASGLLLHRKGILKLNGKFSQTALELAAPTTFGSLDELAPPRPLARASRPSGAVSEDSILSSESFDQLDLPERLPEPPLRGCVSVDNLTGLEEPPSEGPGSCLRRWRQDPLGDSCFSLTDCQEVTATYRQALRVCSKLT

C=CC(=O)N1CCC[C@@H](n2nc(-c3ccc(Oc4ccccc4)cc3)c3c(N)ncnc32)C1 [Ibrutinib]
1 µM GBD00276 (ibrutinib), % inhibition (AKT2): 17.43% | 1 µM GBD00276 (ibrutinib), % inhibition (CDC42BPA/MRCKA): -8.638% | 1 µM GBD00276 (ibrutinib), % inhibition (CDK1/B1): -7.635% | 1 µM GBD00276 (ibrutinib), % inhibition (CHAK1): -7.703% | 1 µM GBD00276 (ibrutinib), % inhibition (CSNK1A1/CK1A1): 2.433% | 1 µM GBD00276 (ibrutinib), % inhibition (CSNK1G3/CK1G3): 15.91% | 1 µM GBD00276 (ibrutinib), % inhibition (DAPK2): 19.22% | 1 µM GBD00276 (ibrutinib), % inhibition (DCLK2/DCAML2): -15.45% | 1 µM GBD00276 (ibrutinib), % inhibition (DYRK4): 6.524% | 1 µM GBD00276 (ibrutinib), % inhibition (EPHA1): 10.7% | 1 µM GBD00276 (ibrutinib), % inhibition (ERN2): 3.601% | 1 µM GBD00276 (ibrutinib), % inhibition (FER): 6.712% | 1 µM GBD00276 (ibrutinib), % inhibition (HIPK2): 1.01% | 1 µM GBD00276 (ibrutinib), % inhibition (JAK2(JH1JH2)): 14.99% | 1 µM GBD00276 (ibrutinib), % inhibition (LCK): 75.25% | 1 µM GBD00276 (ibrutinib), % inhibition (LYNB): 40.58% | 1 µM GBD00276 (ibrutinib), % inhibition (MAP3K1): -9.45% | 1 µM GBD00276 (ibrutinib), % inhibition (MAP4K1/HPK1): 8.34% | 1 µM GBD00276 (ibrutinib), % inhibition (MAP4K3/GLK): 9.762% | 1 µM GBD00276 (ibrutinib), % inhibition (MAP4K5/KSH1): 14.55% | 1 µM GBD00276 (ibrutinib), % inhibition (MAPK13/P38D): 0.9944% | 1 µM GBD00276 (ibrutinib), % inhibition (MAPK15/ERK7): -6.367% | 1 µM GBD00276 (ibrutinib), % inhibition (MYO3A): -10.26% | 1 µM GBD00276 (ibrutinib), % inhibition (NDR1): 6.051% | 1 µM GBD00276 (ibrutinib), % inhibition (NUAK2): 3.408% | 1 µM GBD00276 (ibrutinib), % inhibition (PAK5): 14.25% | 1 µM GBD00276 (ibrutinib), % inhibition (PHKG1): 0.1781% | 1 µM GBD00276 (ibrutinib), % inhibition (PLK4): 7.389% | 1 µM GBD00276 (ibrutinib), % inhibition (PRKACA): -16.42% | 1 µM GBD00276 (ibrutinib), % inhibition (PRKACB): -25.42% | 1 µM GBD00276 (ibrutinib), % inhibition (PRKCB1/PKCB1): -10.64% | 1 µM GBD00276 (ibrutinib), % inhibition (PRKD1): -11.81% | 1 µM GBD00276 (ibrutinib), % inhibition (RPS6KB1/P70S6K): -19.78% | 1 µM GBD00276 (ibrutinib), % inhibition (SLK): -2.298% | 1 µM GBD00276 (ibrutinib), % inhibition (STK10/LOK): -13.28% | 1 µM GBD00276 (ibrutinib), % inhibition (TYRO3): 3.401% | 1 µM GBD00276 (ibrutinib), % inhibition (ULK2): -2.604% | 1 µM GBD00276 (ibrutinib), % inhibition (YSK4): 25.63%
